According to patent publication US10030047B2 (Hoffmann-La Roche Inc., priority 2015, dated 2018):
Converted amounts (≈) assume the structure as drawn.

Tested on: A. baumannii strain ATCC19606
Experiment: Minimum inhibitory concentration (MIC) determination, microbroth dilution (CLSI)
Format: cell-based
Settings: Acinetobacter baumannii; A. baumannii ATCC19606; CAMHB; read after 20 hours; >=80% growth inhibition; read-out: ATCC19606 MIC
Summary of the method: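 After 20 h at 35±2 °C, MIC taken visually and by OD 600 nm as the lowest concentration giving ≥80% growth inhibition. Bacteria (~5×10^5 CFU/ml) were tested per CLSI microbroth dilution against twofold serial compound dilutions in cation-adjusted Mueller Hinton broth.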

| SMILES | MIC |
| --- | --- |
| CN1C(=O)[C@H](CCCCN)NC(=O)[C@H](CCCN)NCc2nccnc2Sc2c(Cl)cc(C(F)(F)F)cc2CNC(=O)[C@@H]1Cc1c[nH]c2ccccc12 [Example 97, (11S,14S,17S)-14-(4-Amino-butyl)-11-(3-amino-propyl)-25-chloro-17-(1H-indol-3-ylmethyl)-16-methyl-23-trifluoromethyl-2-thia-4,7,10,13,16,19-hexaaza-tricyclo[19.4.0.0*3,8*]pentacosa-1(21),3,5,7,22,24-hexaene-12,15,18-trione] | 0.12 µg/mL (≈ 0.155 µM) |
| CN1C(=O)[C@H](CCCCN)NC(=O)[C@H](CCCNC(=O)OCc2ccccc2)NCc2cccnc2Sc2c(Cl)ccc(Cl)c2CNC(=O)[C@@H]1Cc1c[nH]c2ccccc12 [Example 139, {3-[(11S,14S,17S)-14-(4-Amino-butyl)-22,25-dichloro-17-(1H-indol-3-ylmethyl)-16-methyl-12,15,18-trioxo-2-thia-4,10,13,16,19-pentaaza-tricyclo[19.4.0.0*3,8*]pentacosa-1(25),3(8),4,6,21,23-hexaen-11-yl]-propyarbamic acid benzyl ester] | 2 µg/mL (≈ 2.29 µM) |
| CN1C(=O)[C@H](CCCCN)NC(=O)[C@H](CCCN)NCc2cccnc2Sc2c(Cl)cc(C#CCOCc3ccccc3)cc2CNC(=O)[C@@H]1Cc1c[nH]c2ccccc12 [Example 188, (11S,14S,17S)-14-(4-Amino-butyl)-11-(3-amino-propyl)-23-(3-benzyloxy-prop-1-ynyl)-25-chloro-17-(1H-indol-3-ylmethyl)-16-methyl-2-thia-4,10,13,16,19-pentaaza-tricyclo[19.4.0.0*3,8*]pentacosa-1(25),3(8),4,6,21,23-hexaene-12,15,18-trione] | 2 µg/mL (≈ 2.35 µM) |
| CN1C(=O)[C@H](CCCCN)NC(=O)[C@H](CCCN)NCc2ccccc2Sc2c(cc(Cl)cc2C(F)(F)F)CNC(=O)[C@@H]1Cc1c[nH]c2ccccc12 [Example 31, (12S,15S,18S)-15-(4-Amino-butyl)-18-(3-amino-propyl)-6-chloro-12-(1H-indol-3-ylmethyl)-13-methyl-4-trifluoromethyl-2-thia-10,13,16,19-tetraaza-tricyclo[19.4.0.0*3,8*]pentacosa-1(25),3,5,7,21,23-hexaene-11,14,17-trione] | 1 µg/mL (≈ 1.29 µM) |
| NCCCC[C@@H]1NC(=O)[C@H](CCCN)NCc2cccnc2Sc2c(Cl)ccc(Cl)c2CNC(=O)[C@H](Cc2c[nH]c3ccccc23)NC1=O [Example 82, (11S,14S,17S)-14-(4-Amino-butyl)-11-(3-amino-propyl)-22,25-dichloro-17-(1H-indol-3-ylmethyl)-2-thia-4,10,13,16,19-pentaaza-tricyclo[19.4.0.0*3,8*]pentacosa-1(25),3(8),4,6,21,23-hexaene-12,15,18-trione] | 4 µg/mL (≈ 5.51 µM) |
| CN1C(=O)[C@H](CCCCN)NC(=O)[C@H](CCCN)NCc2cccnc2Sc2c(Cl)ccc(-c3ccc(S(C)(=O)=O)cc3)c2CNC(=O)[C@@H]1Cc1c[nH]c2ccccc12 [Example 225, (11S,14S,17S)-14-(4-Amino-butyl)-11-(3-amino-propyl)-25-chloro-17-(1H-indol-3-ylmethyl)-22-(4-methanesulfonyl-phenyl)-16-methyl-2-thia-4,10,13,16,19-pentaaza-tricyclo[19.4.0.0*3,8*]pentacosa-1(21),3,5,7,22,24-hexaene-12,15,18-trione] | 0.12 µg/mL (≈ 0.14 µM) |
| CN1C(=O)[C@H](CCCCN)NC(=O)[C@H](CCCN)NCc2cccnc2Sc2c(Cl)cc(C3=CCOCC3)cc2CNC(=O)[C@@H]1Cc1c[nH]c2ccccc12 [Example 138, (11S,14S,17S)-14-(4-Amino-butyl)-11-(3-amino-propyl)-25-chloro-23-(3,6-dihydro-2H-pyran-4-yl)-17-(1H-indol-3-ylmethyl)-16-methyl-2-thia-4,10,13,16,19-pentaaza-tricyclo[19.4.0.0*3,8*]pentacosa-1(25),3(8),4,6,21,23-hexaene-12,15,18-trione] | 0.5 µg/mL (≈ 0.635 µM) |
| CN1C(=O)[C@H](CCCCN)NC(=O)[C@H](CCCN)NCc2cccnc2Sc2c(Cl)ccc(-c3ccc(N)nc3)c2CNC(=O)[C@@H]1Cc1c[nH]c2ccccc12 [Example 228, (11S,14S,17S)-14-(4-Amino-butyl)-11-(3-amino-propyl)-22-(6-amino-pyridin-3-yl)-25-chloro-17-(1H-indol-3-ylmethyl)-16-methyl-2-thia-4,10,13,16,19-pentaaza-tricyclo[19.4.0.0*3,8*]pentacosa-1(21),3,5,7,22,24-hexaene-12,15,18-trione] | 0.12 µg/mL (≈ 0.15 µM) |
| CN1C(=O)[C@H](CCCCN)NC(=O)[C@H](CCCN)NCc2cccnc2Sc2cccc(Cl)c2CNC(=O)[C@@H]1Cc1c[nH]c2ccccc12 [Example 34, (11S,14S,17S)-14-(4-Amino-butyl)-11-(3-amino-propyl)-22-chloro-17-(1H-indol-3-ylmethyl)-16-methyl-2-thia-4,10,13,16,19-pentaaza-tricyclo[19.4.0.0*3,8*]pentacosa-1(25),3,5,7,21,23-hexaene-12,15,18-trione] | 16 µg/mL (≈ 22.7 µM) |
| CN1C(=O)[C@H](CCCCN)NC(=O)[C@H](CCCN)NCc2ccccc2Sc2cnccc2CNC(=O)[C@@H]1Cc1c[nH]c2ccccc12 [Example 63, (12S,15S,18S)-15-(4-Amino-butyl)-18-(3-amino-propyl)-12-(1H-indol-3-ylmethyl)-13-methyl-2-thia-5,10,13,16,19-pentaaza-tricyclo[19.4.0.0*3,8*]pentacosa-1(25),3,5,7,21,23-hexaene-11,14,17-trione] | 32 µg/mL (≈ 47.7 µM) |
| CN1C(=O)[C@H](CCCCN)NC(=O)[C@H](CCCN)NCc2ccccc2Sc2nc(N3CCOCC3)ccc2CNC(=O)[C@@H]1Cc1c[nH]c2ccccc12 [Example 192] | 64 µg/mL (≈ 84.7 µM) |
| CN1C(=O)[C@H](CCCCN)NC(=O)[C@H](CCCN)NCc2ccncc2Sc2c(Cl)ccc(C(F)(F)F)c2CNC(=O)[C@@H]1Cc1c[nH]c2ccccc12 [Example 122, (11S,14S,17S)-14-(4-Amino-butyl)-11-(3-amino-propyl)-25-chloro-17-(1H-indol-3-ylmethyl)-16-methyl-22-trifluoromethyl-2-thia-5,10,13,16,19-pentaaza-tricyclo[19.4.0.0*3,8*]pentacosa-1(25),3,5,7,21,23-hexaene-12,15,18-trione] | 1 µg/mL (≈ 1.29 µM) |
| CN1C(=O)[C@H](CCCCN)NC(=O)[C@H](CCCN)NCc2ccccc2Sc2ccc(Cl)cc2CNC(=O)[C@@H]1Cc1cn(C)c2ccccc12 [Example 17, (12S,15S,18S)-15-(4-Amino-butyl)-18-(3-amino-propyl)-6-chloro-13-methyl-12-(1-methyl-1H-indol-3-ylmethyl)-2-thia-10,13,16,19-tetraaza-tricyclo[19.4.0.0*3,8*]pentacosa-1(21),3,5,7,22,24-hexaene-11,14,17-trione] | 32 µg/mL (≈ 44.5 µM) |
| CN1C(=O)[C@H](CCCCN)NC(=O)[C@H](CCCN)NCc2cccnc2Sc2ccc(Cl)cc2CNC(=O)[C@@H]1Cc1c[nH]c2ccccc12 [Example 33, (11S,14S,17S)-14-(4-Amino-butyl)-11-(3-amino-propyl)-23-chloro-17-(1H-indol-3-ylmethyl)-16-methyl-2-thia-4,10,13,16,19-pentaaza-tricyclo[19.4.0.0*3,8*]pentacosa-1(25),3,5,7,21,23-hexaene-12,15,18-trione] | 1 µg/mL (≈ 1.42 µM) |
| CN1C(=O)[C@H](CCCCN)NC(=O)[C@H](CCCN)NCc2cccnc2Sc2c(Cl)cc(B(O)O)cc2CNC(=O)[C@@H]1Cc1c[nH]c2ccccc12 [Example 116, {(7S,10S,13S)-10-(4-aminobutyl)-7-(3-aminopropyl)-20-chloro-13-[(1H-indol-3-yl)methyl]-12-methyl-8,11,14-trioxo-5,6,7,8,9,10,11,12,13,14,15,16-dodecahydropyrido[2,3-b][1,5,8,11,14]benzothiatetraazacycloheptadecin-18-yl}boronic acid] | 8 µg/mL (≈ 10.7 µM) |
| CCN1C(=O)[C@H](CCCCN)NC(=O)[C@H](CCCN)NCc2cccnc2Sc2c(Cl)cc(Cl)cc2CNC(=O)[C@@H]1Cc1c[nH]c2ccccc12 [Example 80, (11S,14S,17S)-14-(4-Amino-butyl)-11-(3-amino-propyl)-23,25-dichloro-16-ethyl-17-(1H-indol-3-ylmethyl)-2-thia-4,10,13,16,19-pentaaza-tricyclo[19.4.0.0*3,8*]pentacosa-1(25),3(8),4,6,21,23-hexaene-12,15,18-trione] | 0.12 µg/mL (≈ 0.159 µM) |
| Cc1cc(-c2cc(Cl)c3c(c2)CNC(=O)[C@H](Cc2c[nH]c4ccccc24)N(C)C(=O)[C@H](CCCCN)NC(=O)[C@H](CCC(N)=O)NCc2cccnc2S3)ccn1 [Example 145, 3-[(11S,14S,17S)-14-(4-Amino-butyl)-25-chloro-17-(1H-indol-3-ylmethyl)-16-methyl-23-(2-methyl-pyridin-4-yl)-12,15,18-trioxo-2-thia-4,10,13,16,19-pentaaza-tricyclo[19.4.0.0*3,8*]pentacosa-1(25),3(8),4,6,21,23-hexaen-1l-yl]-propionamide] | 4 µg/mL (≈ 4.94 µM) |
| Cc1[nH]c2ccccc2c1C[C@H]1C(=O)NCc2c(-c3cccnc3)ccc(Cl)c2Sc2ncccc2CN[C@@H](CCCN)C(=O)N[C@@H](CCCCN)C(=O)N1C [Example 200, (11S,14S,17S)-14-(4-Amino-butyl)-11-(3-amino-propyl)-25-chloro-16-methyl-17-(2-methyl-1H-indol-3-ylmethyl)-22-pyridin-3-yl-2-thia-4,10,13,16,19-pentaaza-tricyclo[19.4.0.0*3,8*]pentacosa-1(25),3(8),4,6,21,23-hexaene-12,15,18-trione] | 0.12 µg/mL (≈ 0.151 µM) |
| CN1C(=O)[C@H](CCCCN)NC(=O)[C@H](CCCN)NCc2cccnc2Sc2c(Cl)ccc(C(F)(F)F)c2CNC(=O)[C@@H]1Cc1c[nH]c2ccc(F)cc12 [Example 131, (11S,14S,17S)-14-(4-Amino-butyl)-11-(3-amino-propyl)-25-chloro-17-(5-fluoro-1H-indol-3-ylmethyl)-16-methyl-22-trifluoromethyl-2-thia-4,10,13,16,19-pentaaza-tricyclo[19.4.0.0*3,8*]pentacosa-1(25),3,5,7,21,23-hexaene-12,15,18-trione] | 0.25 µg/mL (≈ 0.316 µM) |
| CN1C(=O)[C@H](CCCCN)NC(=O)[C@H](CCCN)NCc2ccccc2Sc2ccnc(N3CCOCC3)c2CNC(=O)[C@@H]1Cc1c[nH]c2ccccc12 [Example 193] | 64 µg/mL (≈ 84.7 µM) |
